The text below walks through data of PubChem BioAssay AID1343 (Sanford-Burnham Center for Chemical Genomics, 2008).

Molecules are shown by their SMILES. The source made the active and inactive calls.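 Rule for the calls: active = survival of 63% or more, 10 points above the level seen with tunicamycin given alone; inactive = the rest.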

For the assay, the system named is CSM14.1 tunicamycin-induced death, ATP luminescence, 48 h. In words: rescue from tunicamycin-induced cell death, late-stage follow-up, mechanism study for ER stress death inhibitor project, undifferentiated CSM14.1, ATP content (AID 1343). As to conditions: at 25 µM; hits give high values.
As to `COc1ccc(C2CC(=O)C3=C(C2)Nc2ccccc2NC3c2cccc(Oc3ccccc3)c2)cc1OC` (stereo unspecified), the survival was 63%.

As to `CCCOc1ccc(C2Nc3ccccc3NC3=C2C(=O)CC(c2ccc(OC)c(OC)c2)C3)cc1` (stereo unspecified), the survival is 74%.

As to `COc1ccc(C2CC(=O)C3=C(C2)Nc2ccccc2NC3c2cccc(Br)c2)cc1OC` (stereo unspecified), the survival was 64%.

In the case of `CSc1ccc(C2Nc3ccccc3NC3=C2C(=O)CC(c2ccccc2)C3)cc1` (stereo unspecified), the survival was 59% (inactive).

As to `CCOc1cc(C2Nc3ccccc3NC3=C2C(=O)CC(c2ccc(OC)cc2)C3)cc(Cl)c1O` (stereo unspecified), the survival was 46% (inactive).

Regarding `COc1ccc(C2CC(=O)C3=C(C2)Nc2ccccc2NC3c2cc(C)ccc2C)cc1` (stereo unspecified), the survival was 57% (inactive).

`O=C1CC(c2ccccc2)CC2=C1C(c1c(F)cccc1Cl)Nc1ccccc1N2` (stereo unspecified): the survival is 52% (inactive).

Take `CC1(C)CC(=O)C2=C(C1)Nc1ccccc1NC2c1ccc(-c2ccccc2)cc1` (stereo unspecified): the survival was 77%.

Regarding `COc1ccc(C2CC(=O)C3=C(C2)Nc2ccccc2NC3c2ccccc2C(F)(F)F)cc1OC` (stereo unspecified), the survival was 60% (inactive).

In the case of `CCOc1cccc(C2Nc3ccccc3NC3=C2C(=O)CC(c2ccc(OC)cc2)C3)c1` (stereo unspecified), the survival was 55% (inactive).

With `COc1ccc(C2CC(=O)C3=C(C2)Nc2ccccc2NC3c2cccc(C(F)(F)F)c2)cc1OC` (stereo unspecified), the survival is 65%.
